The assay concerns the target T1, HMG-CoA reductase (Homo sapiens, UniProt P04035).
T1 construct: endogenous in cells; host or cells: HepG2 (Korea Cell Line Bank)
T1 sequence (P04035 1-888): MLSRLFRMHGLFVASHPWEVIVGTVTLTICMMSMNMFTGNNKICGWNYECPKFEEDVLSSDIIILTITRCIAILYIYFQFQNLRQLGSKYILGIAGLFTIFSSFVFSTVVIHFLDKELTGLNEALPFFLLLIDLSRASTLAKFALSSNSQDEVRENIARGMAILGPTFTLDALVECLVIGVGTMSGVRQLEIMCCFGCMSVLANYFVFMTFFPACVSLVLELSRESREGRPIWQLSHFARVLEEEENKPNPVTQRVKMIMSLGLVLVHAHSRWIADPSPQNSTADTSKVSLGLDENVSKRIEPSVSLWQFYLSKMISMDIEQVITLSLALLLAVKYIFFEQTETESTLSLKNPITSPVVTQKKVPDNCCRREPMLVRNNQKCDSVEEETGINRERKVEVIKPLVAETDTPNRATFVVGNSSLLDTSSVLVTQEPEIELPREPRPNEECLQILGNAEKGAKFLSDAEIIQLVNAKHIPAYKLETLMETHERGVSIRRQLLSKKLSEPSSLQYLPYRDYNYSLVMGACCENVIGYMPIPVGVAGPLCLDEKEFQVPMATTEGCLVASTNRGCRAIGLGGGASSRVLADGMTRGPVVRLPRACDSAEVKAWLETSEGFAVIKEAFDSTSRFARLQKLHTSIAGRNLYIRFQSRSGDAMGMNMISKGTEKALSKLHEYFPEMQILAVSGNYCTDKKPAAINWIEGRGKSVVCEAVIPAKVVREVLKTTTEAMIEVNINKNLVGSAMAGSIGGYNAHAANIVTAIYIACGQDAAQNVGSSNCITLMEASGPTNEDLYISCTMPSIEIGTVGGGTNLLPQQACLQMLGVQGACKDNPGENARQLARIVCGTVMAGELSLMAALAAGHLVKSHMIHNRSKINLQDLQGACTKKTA
In words: HMG-CoA reductase (HMGCR) degradation in HepG2 cells by western blotting. It counts as cell-based. The note with it: treated for 18 hours, ratio of HMG-CoA reductase to GAPDH, read-out: DC50. An outline of the steps: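 Western blot read-out: HMGCR protein probed (1:500, 16 hours at 4° C) alongside GAPDH loading control on 15 μg BCA-normalised RIPA lysates. Lysates came from HepG2 cells (P105–P110) exposed for 18 hours to a 10-point, three-fold series starting at 3 μM.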
Regarding `C[C@H]1C=C2C=C[C@H](C)[C@H](CC[C@@H]3C[C@@H](O[Si](C)(C)C(C)(C)C)CC(=O)O3)[C@H]2[C@@H](OC(=O)NCCCCN2CCC(Nc3cccc4c3C(=O)N(C3CCC(=O)NC3=O)C4=O)CC2)C1` (stereo partly drawn) [Compound 72, (1S,3R,7S,8S,8aR)-8-(2-((2R,4R)-4-((tert-butyldimethylsilyl)oxy)-6-oxotetrahydro-2H-pyran-2-yl)ethyl)-3,7-dimethyl-1,2,3,7,8,8a-hexahydronaphthalen-1-yl (4-(4-((2-(2,6-dioxopiperidin-3-yl)-1,3-dioxoisoindolin-4-yl)amino)piperidin-1-yl)butyl)carbamate], the DC50 – broadly, the midpoint of the concentration-degradation curve – was below 50 nM.

In the case of `C[C@H]1C=C2C=C[C@H](C)[C@H](CC[C@@H]3C[C@@H](O)CC(=O)O3)[C@H]2[C@@H](OC(=O)NCCCCN2CCC(Nc3cccc4c3C(=O)N(C3CCC(=O)NC3=O)C4=O)CC2)C1` (stereo partly drawn) [Compound 73, (1S,3R,7S,8S,8aR)-8-(2-((2R,4R)-4-hydroxy-6-oxotetrahydro-2H-pyran-2-yl)ethyl)-3,7-dimethyl-1,2,3,7,8,8a-hexahydronaphthalen-1-yl (4-(4-((2-(2,6-dioxopiperidin-3-yl)-1,3-dioxoisoindolin-4-yl)amino)piperidin-1-yl)butyl)carbamate], the DC50 is below 50 nM.

On to `C[C@H]1C=C2C=C[C@H](C)[C@H](CC[C@@H]3C[C@@H](O[Si](C)(C)C(C)(C)C)CC(=O)O3)[C@H]2[C@@H](OC(=O)NCCCCCNC(=O)COc2cccc3c2C(=O)N(C2CCC(=O)NC2=O)C3=O)C1` (stereo partly drawn) [Compound 74, (1S,3R,7S,8S,8aR)-8-(2-((2R,4R)-4-((tert-butyldimethylsilyl)oxy)-6-oxotetrahydro-2H-pyran-2-yl)ethyl)-3,7-dimethyl-1,2,3,7,8,8a-hexahydronaphthalen-1-yl (5-(2-((2-(2,6-dioxopiperidin-3-yl)-1,3-dioxoisoindolin-4-yl)oxy)acetamido)pentyl)carbamate], for which the DC50 is below 50 nM.

As to `C[C@H]1C=C2C=C[C@H](C)[C@H](CC[C@@H]3C[C@@H](O)CC(=O)O3)[C@H]2[C@@H](OC(=O)NCCCCCNC(=O)COc2cccc3c2C(=O)N(C2CCC(=O)NC2=O)C3=O)C1` (stereo partly drawn) [Compound 75, (1S,3R,7S,8S,8aR)-8-(2-((2R,4R)-4-hydroxy-6-oxotetrahydro-2H-pyran-2-yl)ethyl)-3,7-dimethyl-1,2,3,7,8,8a-hexahydronaphthalen-1-yl (5-(2-((2-(2,6-dioxopiperidin-3-yl)-1,3-dioxoisoindolin-4-yl)oxy)acetamido)pentyl)carbamate], the DC50 was below 50 nM.

For `C[C@H]1C=C2C=C[C@H](C)[C@H](CC[C@@H]3C[C@@H](O[Si](C)(C)C(C)(C)C)CC(=O)O3)[C@H]2[C@@H](OC(=O)NCCCCCCCC(=O)Nc2cccc3c2C(=O)N(C2CCC(=O)NC2=O)C3=O)C1` (stereo partly drawn) [Compound 76, (1S,3R,7S,8S,8aR)-8-(2-((2R,4R)-4-((tert-butyldimethylsilyl)oxy)-6-oxotetrahydro-2H-pyran-2-yl)ethyl)-3,7-dimethyl-1,2,3,7,8,8a-hexahydronaphthalen-1-yl (8-((2-(2,6-dioxopiperidin-3-yl)-1,3-dioxoisoindolin-4-yl)amino)-8-oxooctyl)carbamate], the DC50 was below 50 nM.

`C[C@H]1C=C2C=C[C@H](C)[C@H](CC[C@@H]3C[C@@H](O)CC(=O)O3)[C@H]2[C@@H](OC(=O)NCCCCCCCC(=O)Nc2cccc3c2C(=O)N(C2CCC(=O)NC2=O)C3=O)C1` (stereo partly drawn) [Compound 77, (1S,3R,7S,8S,8aR)-8-(2-((2R,4R)-4-hydroxy-6-oxotetrahydro-2H-pyran-2-yl)ethyl)-3,7-dimethyl-1,2,3,7,8,8a-hexahydronaphthalen-1-yl (8-((2-(2,6-dioxopiperidin-3-yl)-1,3-dioxoisoindolin-4-yl)amino)-8-oxooctyl)carbamate]: the DC50 was below 50 nM.

Turning to `C[C@H]1C=C2C=C[C@H](C)[C@H](CC[C@@H]3C[C@@H](O[Si](C)(C)C(C)(C)C)CC(=O)O3)[C@H]2[C@@H](OC(=O)NCc2cccc(CNC(=O)COc3cccc4c3C(=O)N(C3CCC(=O)NC3=O)C4=O)c2)C1` (stereo partly drawn) [Compound 78, (1S,3R,7S,8S,8aR)-8-(2-((2R,4R)-4-((tert-butyldimethylsilyl)oxy)-6-oxotetrahydro-2H-pyran-2-yl)ethyl)-3,7-dimethyl-1,2,3,7,8,8a-hexahydronaphthalen-1-yl (3-((2-((2-(2,6-dioxopiperidin-3-yl)-1,3-dioxoisoindolin-4-yl)oxy)acetamido)methyl)benzyl)carbamate], the DC50 is below 50 nM.

With `C[C@H]1C=C2C=C[C@H](C)[C@H](CC[C@@H]3C[C@@H](O)CC(=O)O3)[C@H]2[C@@H](OC(=O)NCc2cccc(CNC(=O)COc3cccc4c3C(=O)N(C3CCC(=O)NC3=O)C4=O)c2)C1` (stereo partly drawn) [Compound 79, (1S,3R,7S,8S,8aR)-8-(2-((2R,4R)-4-hydroxy-6-oxotetrahydro-2H-pyran-2-yl)ethyl)-3,7-dimethyl-1,2,3,7,8,8a-hexahydronaphthalen-1-yl (3-((2-((2-(2,6-dioxopiperidin-3-yl)-1,3-dioxoisoindolin-4-yl)oxy)acetamido)methyl)benzyl)carbamate], the DC50 was below 50 nM.

Take `C[C@H]1C=C2C=C[C@H](C)[C@H](CC[C@@H]3C[C@@H](O[Si](C)(C)C(C)(C)C)CC(=O)O3)[C@H]2[C@@H](OC(=O)NCCC2CCN(C(=O)COc3cccc4c3C(=O)N(C3CCC(=O)NC3=O)C4=O)CC2)C1` (stereo partly drawn) [Compound 80, (1S,3R,7S,8S,8aR)-8-(2-((2R,4R)-4-((tert-butyldimethylsilyl)oxy)-6-oxotetrahydro-2H-pyran-2-yl)ethyl)-3,7-dimethyl-1,2,3,7,8,8a-hexahydronaphthalen-1-yl (2-(1-(2-((2-(2,6-dioxopiperidin-3-yl)-1,3-dioxoisoindolin-4-yl)oxy)acetyl)piperidin-4-yl)ethyl)carbamate]: the DC50 is below 50 nM.

As for `C[C@H]1C=C2C=C[C@H](C)[C@H](CC[C@@H]3C[C@@H](O)CC(=O)O3)[C@H]2[C@@H](OC(=O)NCCC2CCN(C(=O)COc3cccc4c3C(=O)N(C3CCC(=O)NC3=O)C4=O)CC2)C1` (stereo partly drawn) [Compound 81, (1S,3R,7S,8S,8aR)-8-(2-((2R,4R)-4-hydroxy-6-oxotetrahydro-2H-pyran-2-yl)ethyl)-3,7-dimethyl-1,2,3,7,8,8a-hexahydronaphthalen-1-yl (2-(1-(2-((2-(2,6-dioxopiperidin-3-yl)-1,3-dioxoisoindolin-4-yl)oxy)acetyl)piperidin-4-yl)ethyl)carbamate], the DC50 was below 50 nM.

Turning to `C[C@H]1C=C2C=C[C@H](C)[C@H](CC[C@@H]3C[C@@H](O[Si](C)(C)C(C)(C)C)CC(=O)O3)[C@H]2[C@@H](OC(=O)N(C)CCOCCOCCNc2cccc3c2C(=O)N(C2CCC(=O)NC2=O)C3=O)C1` (stereo partly drawn) [Compound 82, (1S,3R,7S,8S,8aR)-8-(2-((2R,4R)-4-((tert-butyldimethylsilyl)oxy)-6-oxotetrahydro-2H-pyran-2-yl)ethyl)-3,7-dimethyl-1,2,3,7,8,8a-hexahydronaphthalen-1-yl (2-(2-(2-((2-(2,6-dioxopiperidin-3-yl)-1,3-dioxoisoindolin-4-yl)amino)ethoxy)ethoxy)ethyl)(methyl)carbamate], the DC50 was below 50 nM.

In the case of `C[C@H]1C=C2C=C[C@H](C)[C@H](CC[C@@H]3C[C@@H](O)CC(=O)O3)[C@H]2[C@@H](OC(=O)N(C)CCOCCOCCNc2cccc3c2C(=O)N(C2CCC(=O)NC2=O)C3=O)C1` (stereo partly drawn) [Compound 83, (1S,3R,7S,8S,8aR)-8-(2-((2R,4R)-4-hydroxy-6-oxotetrahydro-2H-pyran-2-yl)ethyl)-3,7-dimethyl-1,2,3,7,8,8a-hexahydronaphthalen-1-yl (2-(2-(2-((2-(2,6-dioxopiperidin-3-yl)-1,3-dioxoisoindolin-4-yl)amino)ethoxy)ethoxy)ethyl)(methyl)carbamate], the DC50 is below 50 nM.

The values are drawn from US12479840B2, “HMG-CoA reductase degradation inducing compound” (Uppthera, priority 2020, dated 2025).
